Reference: DBAASP
In brackets after ≈: the same amount, converted by molar mass. One block for each compound: values may come before it.

Experiments:
Test in all cases: ≥ marks a high value that may be exact or a test limit, other limits are often not marked, values filed in µg/mL are converted to µM
[1] = test system: Staphylococcus aureus ATCC 2592
[2] = test system: Escherichia coli ML-35p
[3] = test system: Pseudomonas aeruginosa PAO1
[4] = test system: Staphylococcus aureus ATCC 43300
[5] = test system: Candida albicans ATCC 2002
[6] = test system: Pseudomonas aeruginosa ATCC 27853
[7] = test system: Bacillus subtilis
[8] = test system: Candida albicans ATCC 90028
[9] = test system: Staphylococcus aureus ATCC 25923
[10] = test system: Escherichia coli ATCC 25726
[11] = test system: Staphylococcus aureus NCTC 8325
[12] = test system: Escherichia coli ATCC 25922
[13] = test system: Acinetobacter baumannii
[14] = test system: Bacillus subtilis 168
[15] = test system: Candida albicans F7-39/IDE99
[16] = test system: Staphylococcus aureus
[17] = test system: Escherichia coli B
[18] = test system: Pseudomonas aeruginosa
[19] = test system: Micrococcus luteus ATCC 9341

Structure (SMILES): CC[C@H](C)[C@H](NC(=O)CNC(=O)[C@@H](NC(=O)[C@H](C)NC(=O)[C@H](CCSC)NC(=O)[C@H](CCCCN)NC(=O)[C@@H](NC(=O)[C@@H](NC(=O)[C@@H]1CCCN1C(=O)CNC(=O)[C@H](CC(C)C)NC(=O)[C@@H](N)Cc1ccccc1)[C@@H](C)CC)[C@@H](C)CC)[C@@H](C)O)C(=O)N[C@@H](CC(C)C)C(=O)N1CCC[C@H]1C(=O)N[C@H](C(=O)N[C@@H](C)C(=O)N[C@H](C(=O)N[C@H]1CSSC[C@@H](C(=O)O)NC(=O)[C@H](CCCCN)NC(=O)[C@H](CCCCN)NC(=O)[C@H](CC(C)C)NC(=O)CNC(=O)[C@H](CCCCN)NC1=O)[C@@H](C)CC)[C@@H](C)O [FLGPIIKMATGILPTAICKGLKKC]
MIC [1]: 0.993 µM (≈ 2.5 µg/mL)
MIC [2]: 19.9 µM (≈ 50 µg/mL)
MIC [3]: 3.97 µM (≈ 9.99 µg/mL)
MIC [4]: 0.993 µM (≈ 2.5 µg/mL)
MIC [5]: 1.99 µM (≈ 5 µg/mL)
MIC [6]: 1.99 µM (≈ 5 µg/mL)
MIC [7]: 7.95 µM (≈ 20 µg/mL)

Structure (SMILES): CC[C@H](C)[C@H](NC(=O)CN)C(=O)NCC(=O)N[C@@H](CCCCN)C(=O)N[C@@H](Cc1ccccc1)C(=O)N[C@@H](CC(C)C)C(=O)N[C@@H](Cc1cnc[nH]1)C(=O)N[C@@H](CO)C(=O)N[C@@H](C)C(=O)NCC(=O)N[C@@H](CCCCN)C(=O)N[C@@H](Cc1ccccc1)C(=O)NCC(=O)N[C@@H](CCCCN)C(=O)N[C@@H](C)C(=O)N[C@@H](Cc1ccccc1)C(=O)N[C@H](C(=O)NCC(=O)N[C@@H](CCC(=O)O)C(=O)N[C@H](C(=O)N[C@@H](CCSC)C(=O)N[C@@H](CCCCN)C(=O)N[C@@H](CO)C(=O)O)[C@@H](C)CC)[C@@H](C)CC [GIGKFLHSAGKFGKAFIGEIMKS]
MIC [8]: 25 µM (≈ 60.6 µg/mL)
MIC [9]: 50 µM (≈ 121 µg/mL)
MIC [10]: 12.5 µM (≈ 30.3 µg/mL)

Structure (SMILES): CC[C@H](C)[C@H](NC(=O)CN)C(=O)N[C@@H](CC(C)C)C(=O)N[C@@H](CO)C(=O)N[C@@H](CO)C(=O)N[C@H](C(=O)N[C@@H](CCCCN)C(=O)NCC(=O)N[C@H](C(=O)N[C@@H](C)C(=O)N[C@@H](CCCCN)C(=O)NCC(=O)N[C@H](C(=O)N[C@@H](C)C(=O)N[C@@H](CCCCN)C(=O)N[C@@H](CC(N)=O)C(=O)N[C@H](C(=O)N[C@@H](C)C(=O)N[C@@H](C)C(=O)N[C@@H](CCC(N)=O)C(=O)N[C@@H](CC(C)C)C(=O)N[C@@H](CC(C)C)C(=O)N[C@@H](CC(=O)O)C(=O)N[C@H](C(=O)N[C@@H](CC(C)C)C(=O)N[C@@H](CCCCN)C(=O)N[C@H]1CSSC[C@@H](C(=O)O)NC(=O)CNC(=O)[C@H]([C@@H](C)O)NC(=O)[C@H]([C@@H](C)CC)NC(=O)[C@H](CCCCN)NC1=O)[C@@H](C)O)C(C)C)C(C)C)C(C)C)[C@@H](C)CC [GILSSIKGVAKGVAKNVAAQLLDTLKCKITGC]
MIC [11]: 4 µM (≈ 12.8 µg/mL)
MIC [12]: 4 µM (≈ 12.8 µg/mL)
MIC [8]: ≥ 62 µM
MIC [9]: 6 µM (≈ 19.2 µg/mL)
MIC [10]: 6 µM (≈ 19.2 µg/mL)

Structure (SMILES): CC[C@H](C)[C@H](NC(=O)[C@H](CC(C)C)NC(=O)[C@H](Cc1cnc[nH]1)NC(=O)CNC(=O)[C@H](CC(C)C)NC(=O)[C@@H](NC(=O)[C@H](CCCCN)NC(=O)[C@H](CO)NC(=O)[C@H](Cc1c[nH]c2ccccc12)NC(=O)[C@H](CCCCN)NC(=O)CN)[C@@H](C)CC)C(=O)N[C@@H](CCCN=C(N)N)C(N)=O [GKWSKILGHLIR]
MIC [14]: 2 µM (≈ 2.81 µg/mL)
MIC [15]: 7.4 µM (≈ 10.4 µg/mL)
MIC [16]: 23.3 µM (≈ 32.8 µg/mL)
MIC [17]: 3.7 µM (≈ 5.2 µg/mL)
MIC [18]: 71.7 µM (≈ 101 µg/mL)

Structure (SMILES): CC[C@H](C)[C@H](N)C(=O)N[C@@H](CC(C)C)C(=O)NCC(=O)N[C@@H](Cc1c[nH]c2ccccc12)C(=O)N[C@@H](CCCCN)C(=O)N[C@@H](Cc1c[nH]c2ccccc12)C(=O)NCC(=O)N[C@@H](Cc1c[nH]c2ccccc12)C(=O)N[C@@H](Cc1c[nH]c2ccccc12)C(=O)NCC(=O)N[C@@H](Cc1c[nH]c2ccccc12)C(=O)N[C@@H](CCCN=C(N)N)C(=O)N[C@@H](CCCN=C(N)N)C(N)=O [ILGWKWGWWGWRR]
MIC [19]: 0.4 µM (≈ 0.714 µg/mL)

Structure (SMILES): CC[C@H](C)[C@H](N)C(=O)N[C@@H](CC(C)C)C(=O)N1CCC[C@H]1C(=O)N[C@@H](Cc1c[nH]c2ccccc12)C(=O)N[C@@H](CCCCN)C(=O)N[C@@H](Cc1c[nH]c2ccccc12)C(=O)N1CCC[C@H]1C(=O)N[C@@H](Cc1c[nH]c2ccccc12)C(=O)N[C@@H](C)C(=O)N1CCC[C@H]1C(=O)N[C@@H](Cc1c[nH]c2ccccc12)C(=O)N[C@@H](CCCN=C(N)N)C(=O)N[C@@H](CCCN=C(N)N)C(N)=O [ILPWKWPWAPWRR]
MIC [19]: 0.8 µM (≈ 1.43 µg/mL)

Structure (SMILES): CC[C@H](C)[C@H](N)C(=O)N[C@@H](CC(C)C)C(=O)N1CCC[C@H]1C(=O)N[C@@H](Cc1c[nH]c2ccccc12)C(=O)N[C@@H](CCCCN)C(=O)N[C@@H](Cc1c[nH]c2ccccc12)C(=O)N1CCC[C@H]1C(=O)N[C@@H](Cc1c[nH]c2ccccc12)C(=O)N[C@@H](Cc1c[nH]c2ccccc12)C(N)=O [ILPWKWPWW]
MIC [19]: 1.6 µM (≈ 2.1 µg/mL)

Structure (SMILES): CSCC[C@H](NC(=O)CNC(=O)[C@H](Cc1ccccc1)NC(=O)[C@@H](N)CC(C)C)C(=O)N[C@@H](C)C(=O)N[C@@H](CC(C)C)C(=O)N[C@@H](CCCCN)C(=O)N[C@@H](CC(C)C)C(=O)N[C@@H](CC(C)C)C(=O)N[C@@H](CCCCN)C(=O)N[C@@H](CCCCN)C(=O)N[C@H](C(=O)N[C@@H](CC(C)C)C(N)=O)C(C)C [LFGMALKLLKKVL]
MIC [14]: 1.5 µM (≈ 2.21 µg/mL)
MIC [15]: 10 µM (≈ 14.7 µg/mL)
MIC [16]: 2.3 µM (≈ 3.39 µg/mL)
MIC [17]: 3.8 µM (≈ 5.6 µg/mL)
MIC [18]: 50 µM (≈ 73.6 µg/mL)

Results, then the compound that gave them:

MIC [8]: 25 µM (≈ 56.5 µg/mL)
MIC [9]: 12.5 µM (≈ 28.3 µg/mL)
MIC [13]: 12.5 µM (≈ 28.3 µg/mL)
MIC [10]: ≥ 50 µM
Structure (SMILES): CC[C@H](C)[C@H](NC(=O)CN)C(=O)N[C@@H](Cc1c[nH]c2ccccc12)C(=O)N[C@@H](CC(=O)O)C(=O)N[C@H](C(=O)N[C@H](C(=O)N[C@@H](CCCCN)C(=O)N[C@@H](CO)C(=O)N[C@@H](CCSC)C(=O)NCC(=O)N[C@@H](CCCCN)C(=O)N[C@H](C(=O)N[C@@H](Cc1ccccc1)C(=O)N[C@@H](C)C(=O)NCC(=O)N[C@@H](C)C(=O)N[C@H](C(=O)N[C@@H](CC(C)C)C(=O)N[C@@H](CCC(N)=O)C(=O)N[C@@H](CC(N)=O)C(=O)N[C@@H](CC(C)C)C(N)=O)[C@@H](C)CC)C(C)C)[C@@H](C)CC)[C@@H](C)O [GIWDTIKSMGKVFAGAILQNL]

MIC [8]: 25 µM (≈ 58.3 µg/mL)
MIC [9]: > 100 µM
MIC [13]: 12.5 µM (≈ 29.2 µg/mL)
MIC [10]: ≥ 50 µM
Structure (SMILES): CC[C@H](C)[C@H](NC(=O)CN)C(=O)N[C@@H](Cc1c[nH]c2ccccc12)C(=O)N[C@@H](CC(=O)O)C(=O)N[C@H](C(=O)N[C@H](C(=O)N[C@@H](CCCCN)C(=O)N[C@@H](CO)C(=O)N[C@@H](CCSC)C(=O)NCC(=O)N[C@@H](CCCCN)C(=O)N[C@H](C(=O)N[C@@H](Cc1ccccc1)C(=O)N[C@@H](C)C(=O)NCC(=O)N[C@@H](CCCCN)C(=O)N[C@H](C(=O)N[C@@H](CCCCN)C(=O)N[C@@H](CCC(N)=O)C(=O)N[C@@H](CC(N)=O)C(=O)N[C@@H](CC(C)C)C(N)=O)[C@@H](C)CC)C(C)C)[C@@H](C)CC)[C@@H](C)O [GIWDTIKSMGKVFAGKIKQNL]

MIC [9]: 20 µM (≈ 50 µg/mL)
MIC [10]: ≥ 40 µM
Structure (SMILES): CC[C@H](C)[C@H](N)C(=O)N[C@H](C(=O)N[C@H](C(=O)N1CCC[C@H]1C(=O)N1CCC[C@H]1C(=O)N[C@H](C(=O)N[C@H](C(=O)N[C@@H](CCCCN)C(=O)N[C@@H](CC(=O)O)C(=O)N[C@H](C(=O)N[C@@H](CC(C)C)C(=O)N[C@@H](CCCCN)C(=O)N[C@@H](CCCCN)C(=O)N[C@@H](Cc1ccccc1)C(=O)N[C@H](C(=O)N[C@@H](CCCCN)C(=O)NCC(=O)N[C@@H](C)C(=O)N[C@H](C(=O)N[C@@H](CO)C(=O)N[C@@H](CO)C(=O)N[C@H](C(=O)N[C@@H](CCSC)C(N)=O)C(C)C)[C@@H](C)CC)[C@@H](C)CC)[C@@H](C)O)C(C)C)[C@@H](C)CC)[C@@H](C)CC)[C@@H](C)O [ITIPPIVKDTLKKFIKGAISSVM]

MIC [9]: 10 µM (≈ 25.7 µg/mL)
MIC [10]: ≥ 40 µM
Structure (SMILES): CC[C@H](C)[C@H](N)C(=O)N[C@H](C(=O)N[C@H](C(=O)N1CCC[C@H]1C(=O)N1CCC[C@H]1C(=O)N[C@H](C(=O)N[C@H](C(=O)N[C@@H](CCCCN)C(=O)N[C@@H](CC(N)=O)C(=O)N[C@H](C(=O)N[C@@H](CC(C)C)C(=O)N[C@@H](CCCCN)C(=O)N[C@@H](CCCCN)C(=O)N[C@@H](Cc1ccccc1)C(=O)N[C@H](C(=O)N[C@@H](CCCCN)C(=O)NCC(=O)N[C@@H](C)C(=O)N[C@H](C(=O)N[C@@H](CO)C(=O)N[C@@H](C)C(=O)N[C@@H](CC(C)C)C(=O)N[C@@H](CCSC)C(=O)N[C@@H](CO)C(=O)O)C(C)C)[C@@H](C)CC)[C@@H](C)O)C(C)C)[C@@H](C)CC)[C@@H](C)CC)[C@@H](C)O [ITIPPIVKNTLKKFIKGAVSALMS]
